Measurements taken from patent publication US10441562B2, “Aromatic farnesyl compound and application thereof” (INSTITUTE OF MICROBIOLOGY, CHINESE ACADEMY OF SCIENCES, priority 2015, dated 2019).
Marks after values point to notes of the source that are not given here.

Legend:
[1] = system: hyperglycemia mice induced by alloxan; test: blood sugar of hyperglycemia mice induced by alloxan; format: in vivo, Kunming species mice
Protocol: Blood glucose determination kit (batch number 20140403) is purchased from Nanjing Jiancheng Bioengineering Institute. Methods: after being acclimatized for 1 week, 10 randomly selected Kunming species male mice of SPF level of 20±2 g are used as control group, while the other 50 mice are given alloxan to make model by intraperitoneal injection according to body weight 220 mg/kg.

[2] = molecular target: T1, α-glucosidase (Saccharomyces cerevisiae, UniProt P53341); test: α-glucosidase inhibitory activity test in vitro; format: biochemical; conditions: read-out: α-glucosidase inhibitory activity (IC50)
T1 construct: purchased Sigma Corporation G5003
Protocol: Add 25 μL α-glucosidase water solution (0.2 U/mL) and 175 μL phosphate buffer (50 mM, pH 7.0) into 25 μL different concentration of the above test solutions. The mixed solution is standed for 10 min at room temperature, and then 25 μL 4-nitrophenyl-α-D-glucopyranoside water solution (2.5 mM) is added into the mixed solution. After the solution is incubated at 37 °C for 30 min and centrifuged at 5000 rpm for 5 minutes, 150 uL supernatant is added into 96-well plates and the absorbance is detected at 405 nm.
Blank group: the test solution is replaced by 25 μL phosphate buffer (50 mM, pH 7.0); blank control group: the test solution is replaced by 25 μL phosphate buffer (50 mM, pH 7.0), meanwhile α-glucosidase water solution is replaced by 25 μL phosphate buffer (50 mM, pH 7.0); sample control group: α-glucosidase water solution is replaced by 25 μL phosphate buffer (50 mM, pH 7.0).
(§1) Repeat each of the above experiment groups for 3 times, and then average the results.
IC50=[CL(IH−50)+CH(50−IL)]/(IH−IL) CL: low concentration value; CH: high concentration value; IH: inhibition rate in high concentration; IL: inhibition rate in low concentration

[3] = molecular target: aldose reductase (Homo sapiens, UniProt P15121); test: aldose reductase inhibitory activity test in vitro; format: biochemical
Protocol: Experimental procedure: the following reagents are added into 96-well plates in sequence and the mixture ratios of different groups are as followings:
Test group: 10 μL compound solution+25 μL (0.1 mM) NADPH solution+25 μL PBS buffer solution+15 μL aldose reductase diluent
Blank group: 25 μL (0.1 mM) NADPH solution+35 μL PBS buffer solution+15 μL aldose reductase diluent
Background group: 25 μL (0.1 mM) NADPH solution+60 μL PBS buffer solution+15 μL aldose reductase diluent
After adding the reagents, the 96-well plate is standed for 10 min at room temperature to make the compound and the enzyme react completely. Add 25 μL 10 mM D, L glyceraldehyde solution which is used as substrate into the groups except for background group, and incubate the solution at 37 °C for 30 min. Then detect the optical density of each well at 340 nm.

[4] = molecular target: T2, HMG-CoA reductase (Homo sapiens, UniProt P04035); test: HMG-CoA reductase inhibitory activity test in vitro; format: biochemical
T2 sequence (P04035 426-888 limits assumed): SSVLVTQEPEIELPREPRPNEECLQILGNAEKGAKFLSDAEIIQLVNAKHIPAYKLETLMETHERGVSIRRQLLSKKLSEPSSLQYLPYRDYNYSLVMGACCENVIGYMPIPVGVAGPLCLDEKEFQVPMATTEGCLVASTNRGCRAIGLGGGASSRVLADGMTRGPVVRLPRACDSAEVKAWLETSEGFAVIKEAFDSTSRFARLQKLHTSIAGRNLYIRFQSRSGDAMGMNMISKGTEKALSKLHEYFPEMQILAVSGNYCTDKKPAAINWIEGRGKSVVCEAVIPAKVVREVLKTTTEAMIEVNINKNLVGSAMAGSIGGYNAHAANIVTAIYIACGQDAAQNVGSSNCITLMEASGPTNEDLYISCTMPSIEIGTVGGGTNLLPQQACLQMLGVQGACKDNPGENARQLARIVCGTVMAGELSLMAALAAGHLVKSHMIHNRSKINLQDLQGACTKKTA
Protocol: Add 25 μL HMG-CoA reductase water solution (0.2 U/mL), 25 μL NADPH water solution (0.2 U/mL) and 24 μL phosphate buffer (50 mM, pH 7.0) into 1 μL different concentration of the above test solution. The mixed solution is standed for 10 min at room temperature, and then 25 μL HMG-CoA is added into the mixed solution. After the solution is incubated at 37∞ for 30 min and centrifuged at 5000 rpm for 5 minutes, 80 uL supernatant is added into 96-well plates and the absorbance is detected at 550 nm.
as §1

[5] = molecular target: T3, protein tyrosine phosphatase 1B (PTP-1B) (Homo sapiens, UniProt P18031); test: PTP-1B inhibitory activity test in vitro; format: biochemical
T3 sequence (P18031 1-435): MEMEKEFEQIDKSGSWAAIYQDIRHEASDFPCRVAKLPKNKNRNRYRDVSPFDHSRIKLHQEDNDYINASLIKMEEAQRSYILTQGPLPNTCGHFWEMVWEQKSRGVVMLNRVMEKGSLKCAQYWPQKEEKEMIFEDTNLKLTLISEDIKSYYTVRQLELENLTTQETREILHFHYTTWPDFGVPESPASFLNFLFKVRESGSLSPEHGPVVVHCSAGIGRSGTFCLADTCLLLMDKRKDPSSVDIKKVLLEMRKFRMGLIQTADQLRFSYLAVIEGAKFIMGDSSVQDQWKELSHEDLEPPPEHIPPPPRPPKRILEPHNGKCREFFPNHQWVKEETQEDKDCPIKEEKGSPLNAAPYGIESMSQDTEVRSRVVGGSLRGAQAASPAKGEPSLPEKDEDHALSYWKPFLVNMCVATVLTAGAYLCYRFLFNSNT
Protocol: Experimental procedure: the following reagents are added into 96-well plates in sequence and the mixture ratios of different groups are as followings: Test group: 50 μL compound solution+50 μL 170 μg/mL PTP-1B solution […] Blank group: 50 μL buffer solution+50 μL 170 μg/mL PTP-1B solution Background group: 50 μL compound solution+50 μL buffer solution After adding the reagents, the 96-well plate is […] for 10 min at room temperature to make the compound and the enzyme react completely. Add 50 μL 1 mM pNPP solution which is used as substrate and incubate the mixed solution at 37 °C for 30 min. Then add 50 μL 3M NaOH into each well of the plate to stop the reaction and the optical density is detected at […].

[6] = molecular target: T4, dipeptidyl peptidase-4 (Homo sapiens, UniProt P27487); test: dipeptidyl peptidase-4 inhibitory activity test in vitro (DPP-4 inhibitor screening kit); format: biochemical
T4 construct: purchased
From the text: The above compounds are detected by DPP-4 inhibitor screening kit.

[7] = system: hyperglycemia KK-A^y mice; test: blood lipid and liver function of hyperglycemia KK-A^y mice; format: in vivo; conditions: 3 weeks, metformin 8 g/kg, group 11
Protocol: (§2) Materials: accurately weigh the 2 compounds S13 and S28 discussed in example 2, and then add 0.5% CMC-Na to make the solution of 5 mg/ml used for activity test. KK-A^y mice are purchased from Chinese Academy of Medical Sciences & Peking Union Medical College Institute of Animal Studies. Experiments are carried out after adapting to the environment (T=20-24° C., constant humidity: 50-60%, 12 hours light exposure (8:00-20:00), soundproof, free feeding and drinking) for 1 week. Glucometer is purchased from Roche.
(§3) Methods: 10 male C57 mice of 6-8 weeks of 20-22 g are used as normal control group (1). Detect the fasting glucose of male KK-A^y mice, which are 6-8 weeks with the weight of 28-32 g, and divide them into different groups according to the blood sugar level and body weight: (2) model control group, (3) which is administered by compound S13 with the dose of 1 mg/kg, (4) which is administered by compound S13 with the dose of 5 mg/kg, (5) which is administered by compound S13 with the dose of 10 mg/kg, (6) which is administered by compound S13 with the dose of 20 mg/kg, (7) which is administered by compound S28 with the dose of 1 mg/kg, (8) which is administered by compound S28 with the dose of 5 mg/kg, (9) which is administered by compound S28 with the dose of 10 mg/kg, (10) which is administered by compound S28 with the dose of 20 mg/kg, (11) which is administered by metformin with the dose of 8 g/kg, (12) which is administered by compound S13 with the dose of 2.5 mg/kg and metformin with the dose of 4 g/kg, (13) which is administered by compound S13 with the dose of 5 mg/kg and metformin with the dose of 4 g/kg, (14) which is administered by compound S28 with the dose of 2.5 mg/kg and metformin with the dose of […], (15) which is administered by compound S28 with the dose of 5 mg/kg and metformin with the dose of […]. Each group has 8 mice, and is administrated successively for 3 weeks. Model control group is given with equal amounts of 0.5% CMC-Na.
4) After the last administration, the mice are executed under anesthesia, and blood is taken to be centrifuged at 3000 rpm in 4[…]. Serum total cholesterol, low density lipoprotein and triglyceride TG are detected.

[8] = system: hyperglycemia KK-A^y mice; test: blood sugar of hyperglycemia KK-A^y mice; format: in vivo; design: blood sugar: unit not given here; conditions: metformin 8 g/kg, group 11
Protocol: as §2, §3
1) Effects of drugs on blood sugar: at the first day after administration, the mice are fasted for 2 hours and blood is collected (0 h) to detect the fasting blood sugar. After the compound is given to the mice by intragastric administration for 30 min, blood is collected from tip of tail to detect the blood sugar level.
(§4) 2) Effects on body weight and blood sugar: the body weight of mice are recorded at the 2th, 5th, 8th, 11th, 14th, 17th, 20th day after administration, and blood is collected from tip of tail to detect the blood sugar level (see table 10).

[9] = body weight of hyperglycemia KK-A^y mice; format: in vivo; conditions: metformin 8 g/kg, group 11
Protocol: as §2, §3, §4

[10] = system: hyperglycemia KK-A^y mice; test: glucose tolerance test (OGTT) in hyperglycemia KK-A^y mice; format: in vivo; conditions: OGTT 12th day, glucose 2.0 g/kg oral, metformin 8 g/kg, group 11
Protocol: as §2, with “KK-A^y” for “Materials: accurately weigh the 2 compounds S13 and S28 discussed in example 2, and then add 0.5% CMC-Na to make the solution of 5 mg/ml used for activity test. KK-A^y”
Each group has 8 mice, and is administrated successively for 3 weeks. Model control group is given with equal amounts of 0.5% CMC-Na.
3) Glucose tolerance test (OGTT): glucose tolerance is detected at the 12th day after administration. The mice are fasted for 12 hours and blood is collected (0 h). After being given with glucose (2.0 g/kg) by oral administration, blood is collected from tip of tail to detect the blood sugar level after 30 min, 60 min and 120 min respectively (see table 11).

T4 sequence (P27487 whole entry, species assumed): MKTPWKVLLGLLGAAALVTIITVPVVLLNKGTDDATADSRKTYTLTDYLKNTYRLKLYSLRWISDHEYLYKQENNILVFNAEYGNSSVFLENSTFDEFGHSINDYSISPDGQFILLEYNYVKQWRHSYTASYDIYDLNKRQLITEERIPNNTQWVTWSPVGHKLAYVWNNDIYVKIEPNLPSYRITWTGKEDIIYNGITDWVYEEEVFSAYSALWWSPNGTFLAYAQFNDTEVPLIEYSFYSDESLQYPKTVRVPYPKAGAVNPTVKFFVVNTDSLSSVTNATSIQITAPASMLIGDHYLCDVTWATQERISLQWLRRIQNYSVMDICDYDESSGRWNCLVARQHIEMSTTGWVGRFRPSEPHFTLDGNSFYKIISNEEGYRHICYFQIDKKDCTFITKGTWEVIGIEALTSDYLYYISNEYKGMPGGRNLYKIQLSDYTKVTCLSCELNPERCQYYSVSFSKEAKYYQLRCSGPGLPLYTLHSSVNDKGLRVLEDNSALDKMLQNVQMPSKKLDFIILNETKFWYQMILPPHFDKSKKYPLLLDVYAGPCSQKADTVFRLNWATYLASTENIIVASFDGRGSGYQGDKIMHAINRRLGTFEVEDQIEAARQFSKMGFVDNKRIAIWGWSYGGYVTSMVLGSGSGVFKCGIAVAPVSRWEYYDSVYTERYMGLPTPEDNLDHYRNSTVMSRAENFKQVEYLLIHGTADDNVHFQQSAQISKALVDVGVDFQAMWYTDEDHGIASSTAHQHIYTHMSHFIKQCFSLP
T1 sequence (P53341 whole entry): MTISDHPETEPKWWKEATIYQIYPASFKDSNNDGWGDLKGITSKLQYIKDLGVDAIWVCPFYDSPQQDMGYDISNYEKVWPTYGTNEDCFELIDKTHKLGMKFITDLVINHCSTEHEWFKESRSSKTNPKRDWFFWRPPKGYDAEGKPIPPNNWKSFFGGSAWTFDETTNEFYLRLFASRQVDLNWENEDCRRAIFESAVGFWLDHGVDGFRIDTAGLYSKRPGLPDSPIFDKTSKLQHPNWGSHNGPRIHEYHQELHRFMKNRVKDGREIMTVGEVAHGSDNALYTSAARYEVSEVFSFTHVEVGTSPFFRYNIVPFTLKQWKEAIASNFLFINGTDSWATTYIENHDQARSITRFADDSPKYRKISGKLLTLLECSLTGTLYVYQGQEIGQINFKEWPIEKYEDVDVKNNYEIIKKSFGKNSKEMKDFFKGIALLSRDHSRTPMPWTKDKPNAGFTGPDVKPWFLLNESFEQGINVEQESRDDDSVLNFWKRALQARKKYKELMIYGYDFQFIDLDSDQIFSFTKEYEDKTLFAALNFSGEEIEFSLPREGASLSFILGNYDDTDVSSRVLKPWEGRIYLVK

For CC(C)=CCC/C(C)=C/CCC1=C[C@@H](c2ccccc2)OC1=O [S16, (S,E)-3-(4,8-dimethylnona-3,7-dien-1-yl)-5-phenylfuran-2(5H)-one], the “blood sugar after administration” value ([1]; 50 mg/kg intragastric, 10 days, fasted 10 hours) was 6.12** mmol/L, the “blood sugar before administration” value ([1]; before administration) was 15.25 mmol/L and the IC50 [2] was 0.23 µM. The IC50 [3] was 58.2 µM, the IC50 [4] was 3.6 µM and the IC50 [5] was 12.5 µM. For the same molecule, the IC50 [6] was 12 µM.
In the case of CN(C)C(=N)N=C(N)N [metformin, reference compound], the ALT [7] is reported as 89.6 U/L, the AST [7] is reported as 137.5 U/L and the HDL-C [7] is reported as 23.1 mg/dL. For the same molecule, the LDL-C [7] was 72 mg/dL, the SOD [7] was 3.7 U/L and the TC [7] was 176* mg/dL. For the same molecule, the TG [7] was 578 mg/dL, the “blood sugar at the 1st day, 0” value ([8]; 1st day 0 h) was 14.9 and the “blood sugar at the 1st day, 30 min” value ([8]; 1st day 30 min after intragastric administration) was 9.85. For the same molecule, the blood sugar ([8]; 2st day) was 13.05, the blood sugar ([8]; 5st day) was 13.9 and the blood sugar ([8]; 8st day) was 13.8. For the same molecule, the blood sugar ([8]; 11st day) was 13.5, the blood sugar ([8]; 14st day) was 13.7 and the blood sugar ([8]; 17st day) was 13.5. For the same molecule, the blood sugar ([8]; 20st day) was 13.24, the Body weight ([9]; 2st day) was 30.7 g and the Body weight ([9]; 5st day) was 30.53 g. The Body weight ([9]; 8st day) was 30.8 g, the Body weight ([9]; 11st day) was 30.6 g and the Body weight ([9]; 14st day) was 30.7 g. The Body weight ([9]; 17st day) was 30.8 g, the Body weight ([9]; 20st day) was 30.5 g and the “glucose tolerance, blood sugar 0 min” value ([10]; 0 min) was 6.5**. For the same molecule, the “glucose tolerance, blood sugar 30 min” value ([10]; 30 min) was 12.8**, the “glucose tolerance, blood sugar 60 min” value ([10]; 60 min) was 10.47** and the “glucose tolerance, blood sugar 120 min” value ([10]; 120 min) was 7.41**.
